Experimental data published in patent US6548544B1, “Method of treatment of priapism without raising systemic blood pressure” (The National University of Singapore, priority 1999, dated 2003).

What was measured:
[1] = set-up: species or system baboon; details: in vivo
Protocol: (§1) Six male baboons weighing between 8 kg and 12 kg were used for the experiment. The animals were sedated with ketamine and anaesthetised with intravenous pentobarbitone injected through an indwelling venous catheter. Drugs were injected into the right corpora cavornosa at the mid-third of the shaft using a 29G needle and 1 ml syringe. Blood pressure was monitored through a cannulated femoral artery connected to the transducer. A measuring tape was used to measure penile length visually from a marked point at the base of the penis to the tip of urethral orifice. Changes in penile length were recorded for a period of 100 min after injection.
(§2) In baboons, intracavernous injection of papaverine (40 mg) or phenoxybenzamine (3 mg) produced a 130% increase in penile length within […] after administration (Table 1). This increase in penile length lasted for more than 100 min. This was repeated one week later and when prostaglandin A2 was injected intracavernosally at the maximum rigidity 20 min after the drug administration, the latter produced a marked reduction in penile length and within 40 min of injection, the penile size reduced to the original state of rugosity (Table 1). The fall in systemic blood pressure produced by prostaglandin A2 ranged from 8 to 16 mmHg. Each value reported in Table 1 represents the mean of six experiments.

[2] = system: Pharmacologically Induced Prolonged Erection (Pipe); assay: Effect on papaverine- and phenoxybenzamine-induced prolonged erection (PIPE), penile length, baboons; assay type: in vivo, baboon
Protocol: as §1
Intracavernous injection of papaverine (40 mg) or phenoxybenzamine (3 mg) which produced maximal penile length within 20 and 40 min were repeated one week later and prostaglandin A2 was given at the peak time of the turgidity.
as §2

[3] = system: human corpora cavernosa muscle; assay: Contractile response of human corpus cavernosum smooth muscle in vitro; assay type: cell-based
Description: FIG. 2 is a graphical representation showing contractile response of prostaglandin A2 on human corpus cavernosum smooth muscle.
Prostaglandin A2 is 8.2 times stronger than noradrenaline in contracting human corpora cavernosa muscle in vitro and 500, 2.5 and 50 times stronger than dopamine, adrenaline and aramine, respectively (FIG. 2).

[4] = system: cavernous nerve stimulation-induced intracavernous pressure increase; assay: Intracavernous pressure (ICP) response to cavernous nerve stimulation, in vivo rat model; set-up: species or system Sprague Dawley rats; details: for Cavernous pressure (mmHg) recording: nerve stimulation
Protocol: The cavernous nerve is a relatively well-defined nerve that exits from the major pelvic ganglion and carries a large component of the autonomic input to the penis. Through electrical stimulation of this nerve, the changes in the peripheral neural mechanisms controlling penile erection can be observed in the animal model. The responses are recorded as concomitant alterations in the ICP following stimulation of this nerve branch.

[5] = rat, in vivo
Protocol: METHOD: Male Sprague Dawley rats (500-700 g) were anaesthetized with sodium pentobarbital (45 mg/kg, intraperitoneal) and the trachea intubated (14G jelco catheter) for respiration. The left external jugular vein and the right common carotid artery were cannulated (PE 50 tubing) for drug infusion and blood pressure monitoring respectively. Through a lower median abdominal incision, the lateral prostate was exposed and the fascia around the cavernous nerve separated through fine dissection. The exposed nerve was suspended on bipolar hook electrode for stimulation. Through transverse perineal incision, a 27G needle was inserted into the penile crus for pressure recording. Systemic and intracavernous pressures were measured by transducers (Ugo Basile) and recorded with MacLab analogue-digital converter (AD instruments). To initiate the experiment, the cavernous nerve was stimulated with square wave pulses of 1 millisecond duration at 20 Hertz and 2 volts with the resting ICP recording.

[6] = system: prolonged erection induced by 60 mg of papaverine; assay: Effect on papaverine-induced prolonged erection in human patients and volunteers; assay type: in vivo; details: for Mean Decrease in Length of Turgid Penis %: erection induced by 60 mg papaverine
Protocol: In human patients and human volunteers, intracavernous injection of prostaglandin A2 (150 μg) was tested on prolonged erection (lasting more than 4 hours) induced by 60 mg of papaverine.
This was corrected by an additional injection of prostaglandin A2 (100 μg). The fall in mean systemic blood pressure ranged from 7 to 10 mmHg (Table 2).

CCCCC[C@H](O)/C=C/[C@H]1C=CC(=O)[C@@H]1C/C=C\CCCC(=O)O [AS-8, prostaglandin A2]
fall in systemic blood pressure [1]: 8-16 mmHg
Mean Change in Penile Length (% of Control) ([2]; papaverine 40 mg followed by AS-8 100 μg 20 min later, 1 min after injection): 32%
Mean Change in Penile Length (% of Control) ([2]; papaverine 40 mg followed by AS-8 100 μg 20 min later, 2 min after injection): 38%
Mean Change in Penile Length (% of Control) ([2]; papaverine 40 mg followed by AS-8 100 μg 20 min later, 5 min after injection): 65%
Mean Change in Penile Length (% of Control) ([2]; papaverine 40 mg followed by AS-8 100 μg 20 min later, 10 min after injection): 130%
Mean Change in Penile Length (% of Control) ([2]; papaverine 40 mg followed by AS-8 100 μg 20 min later, 20 min after injection): 142%
Mean Change in Penile Length (% of Control) ([2]; papaverine 40 mg followed by AS-8 100 μg 20 min later, 40 min after injection): 15%
Mean Change in Penile Length (% of Control) ([2]; papaverine 40 mg followed by AS-8 100 μg 20 min later, 60 min after injection): 0%
Mean Change in Penile Length (% of Control) ([2]; papaverine 40 mg followed by AS-8 100 μg 20 min later, 80 min after injection): 0%
Mean Change in Penile Length (% of Control) ([2]; papaverine 40 mg followed by AS-8 100 μg 20 min later, 100 min after injection): 0%
Mean Change in Penile Length (% of Control) ([2]; phenoxybenzamine 3 mg followed by AS-8 100 μg 20 min later, 1 min after injection): 7%
Mean Change in Penile Length (% of Control) ([2]; phenoxybenzamine 3 mg followed by AS-8 100 μg 20 min later, 2 min after injection): 15%
Mean Change in Penile Length (% of Control) ([2]; phenoxybenzamine 3 mg followed by AS-8 100 μg 20 min later, 5 min after injection): 20%
Mean Change in Penile Length (% of Control) ([2]; phenoxybenzamine 3 mg followed by AS-8 100 μg 20 min later, 10 min after injection): 38%
Mean Change in Penile Length (% of Control) ([2]; phenoxybenzamine 3 mg followed by AS-8 100 μg 20 min later, 20 min after injection): 85%
Mean Change in Penile Length (% of Control) ([2]; phenoxybenzamine 3 mg followed by AS-8 100 μg 20 min later, 40 min after injection): 10%
Mean Change in Penile Length (% of Control) ([2]; phenoxybenzamine 3 mg followed by AS-8 100 μg 20 min later, 60 min after injection): 0%
Mean Change in Penile Length (% of Control) ([2]; phenoxybenzamine 3 mg followed by AS-8 100 μg 20 min later, 80 min after injection): 0%
Mean Change in Penile Length (% of Control) ([2]; phenoxybenzamine 3 mg followed by AS-8 100 μg 20 min later, 100 min after injection): 0%
time until penile size reduced to the original state of rugosity ([2]; prostaglandin A2 intracavernosally at maximum rigidity 20 min after papaverine or phenoxybenzamine): ≤ 40 min
times stronger than adrenaline in contracting human corpora cavernosa muscle ([3]; versus adrenaline): 2.5 times
times stronger than aramine in contracting human corpora cavernosa muscle ([3]; versus aramine): 50 times
times stronger than dopamine in contracting human corpora cavernosa muscle ([3]; versus dopamine): 500 times
times stronger than noradrenaline in contracting human corpora cavernosa muscle ([3]; versus noradrenaline): 8.2 times
prevention of intracavernous pressure increase to cavernous nerve stimulation [4]: prevents, in a dose-dependent manner
cavernous pressure elevations to subsequent nerve stimulations ([4]; intracavernous AS-8, all the doses tested, Analysis of Variance): significantly suppressed
Cavernous pressure (mmHg) recording ([4]; AS-8 1 μg intracavernous, 2 Min after, Control before 45.76 ± 1.46): 26.48 ± 4.62 mmHg
Cavernous pressure (mmHg) recording ([4]; AS-8 1 μg intracavernous, 5 Min after, Control before 45.76 ± 1.46): 22.48 ± 3.21 mmHg
Cavernous pressure (mmHg) recording ([4]; AS-8 1 μg intracavernous, 10 Min after, Control before 45.76 ± 1.46): 26.94 ± 4.77 mmHg
Cavernous pressure (mmHg) recording ([4]; AS-8 1 μg intracavernous, 20 Min after, Control before 45.76 ± 1.46): 24.42 ± 6.87 mmHg
Cavernous pressure (mmHg) recording ([4]; AS-8 1 μg intracavernous, 30 Min after, Control before 45.76 ± 1.46): 22.40 ± 5.34 mmHg
Cavernous pressure (mmHg) recording ([4]; AS-8 1 μg intracavernous, 30 Sec after, Control before 45.76 ± 1.46): 33.83 ± 3.09 mmHg
Cavernous pressure (mmHg) recording ([4]; AS-8 2 μg intracavernous, 2 Min after, Control before 40.60 ± 2.58): 22.29 ± 9.96 mmHg
Cavernous pressure (mmHg) recording ([4]; AS-8 2 μg intracavernous, 5 Min after, Control before 40.60 ± 2.58): 26.42 ± 4.42 mmHg
Cavernous pressure (mmHg) recording ([4]; AS-8 2 μg intracavernous, 10 Min after, Control before 40.60 ± 2.58): 24.49 ± 7.39 mmHg
Cavernous pressure (mmHg) recording ([4]; AS-8 2 μg intracavernous, 20 Min after, Control before 40.60 ± 2.58): 31.84 ± 5.54 mmHg
Cavernous pressure (mmHg) recording ([4]; AS-8 2 μg intracavernous, 30 Min after, Control before 40.60 ± 2.58): 29.62 ± 4.62 mmHg
Cavernous pressure (mmHg) recording ([4]; AS-8 2 μg intracavernous, 30 Sec after, Control before 40.60 ± 2.58): 35.29 ± 3.29 mmHg
Cavernous pressure (mmHg) recording ([4]; AS-8 4 μg intracavernous, 2 Min after, Control before 46.40 ± 1.59): 16.07 ± 1.00 mmHg
Cavernous pressure (mmHg) recording ([4]; AS-8 4 μg intracavernous, 5 Min after, Control before 46.40 ± 1.59): 14.90 ± 1.71 mmHg
Cavernous pressure (mmHg) recording ([4]; AS-8 4 μg intracavernous, 10 Min after, Control before 46.40 ± 1.59): 15.00 ± 6.71 mmHg
Cavernous pressure (mmHg) recording ([4]; AS-8 4 μg intracavernous, 20 Min after, Control before 46.40 ± 1.59): 18.30 ± 6.40 mmHg
Cavernous pressure (mmHg) recording ([4]; AS-8 4 μg intracavernous, 30 Min after, Control before 46.40 ± 1.59): 17.05 ± 5.86 mmHg
Cavernous pressure (mmHg) recording ([4]; AS-8 4 μg intracavernous, 30 Sec after, Control before 46.40 ± 1.59): 25.91 ± 5.57 mmHg
mean systemic blood pressure change [5]: concurrent reduction in mean systemic blood pressure
Mean Decrease in Length of Turgid Penis % ([6]; Patients (2), 150 μg intracavernous, 1 min after AS-8 injection): 10%
Mean Decrease in Length of Turgid Penis % ([6]; Patients (2), 150 μg intracavernous, 5 min after AS-8 injection): 50%
Mean Decrease in Length of Turgid Penis % ([6]; Patients (2), 150 μg intracavernous, 10 min after AS-8 injection): 80%
Mean Decrease in Length of Turgid Penis % ([6]; Patients (2), 150 μg intracavernous, 20 min after AS-8 injection): 90%
Mean Decrease in Length of Turgid Penis % ([6]; Patients (2), 150 μg intracavernous, 30 min after AS-8 injection): 100%
Mean Decrease in Length of Turgid Penis % ([6]; Volunteers (3), 150 μg intracavernous, 1 min after AS-8 injection): 10%
Mean Decrease in Length of Turgid Penis % ([6]; Volunteers (3), 150 μg intracavernous, 5 min after AS-8 injection): 30%
Mean Decrease in Length of Turgid Penis % ([6]; Volunteers (3), 150 μg intracavernous, 10 min after AS-8 injection): 75%
Mean Decrease in Length of Turgid Penis % ([6]; Volunteers (3), 150 μg intracavernous, 20 min after AS-8 injection): 80%
Mean Decrease in Length of Turgid Penis % ([6]; Volunteers (3), 150 μg intracavernous, 30 min after AS-8 injection): 95%
subjects with maximal reduction in rigidity and penile length to the rugose state within 30 min after injection ([6]; patients and volunteers, erection induced by 60 mg papaverine for 4 hours or more, 150 μg intracavernous): four out of five subjects
relapse of tumescence after first injection ([6]; volunteers, first injection 150 μg, corrected by additional injection of 100 μg): In one volunteer, there was a relapse of tumescence within 60 min
